# Source: ChEMBL document CHEMBL5360551, “Exploration of LPS2 agonist binding modes using the combination of a new hydrophobic scaffold and homology modeling” (Eur J Med Chem, 2023)
# Active and inactive are the calls of the source. The rule behind the calls is not given here.
# How the values were obtained:
# Type in all cases: functional, cell-based
# [1] = molecular target: Putative P2Y purinoceptor 10 (Mus musculus, UniProt Q8BFU7); test: Agonist activity at mouse LPS2/P2Y10 transfected in HEK293-A cells co-transfected with AP-TGFalpha assessed as AP-TGFalpha release by TGFalpha shedding assay; details: read-out: EC50
# McA-RH7777 [2] = test: Induction of actin stress fiber formation in rat McA-RH7777 cells expressing mouse LPS2 at 1 uM incubated for 30 mins by Alexa594-labelled phalloidin staining based fluorescence microscopic analysis
# [3] = molecular target: Putative P2Y purinoceptor 10 (Mus musculus) (UniProt Q8BFU7); test: Agonist activity at mouse LPS2/P2Y10 transfected in HEK293-A cells co-transfected with AP-TGFalpha assessed as AP-TGFalpha release by TGFalpha shedding assay relative to LysoPS; details: filed as agonist
# McA-RH7777 [4] = test: Induction of actin stress fiber formation in rat McA-RH7777 cells expressing mouse LPS2 at 1 nM incubated for 30 mins by Alexa594-labelled phalloidin staining based fluorescence microscopic analysis
# [5] = molecular target: T1, Putative P2Y purinoceptor 10 (Homo sapiens, UniProt O00398); test: Agonist activity at human LPS2/P2Y10 transfected in HEK293-A cells co-transfected with AP-TGFalpha assessed as AP-TGFalpha release by TGFalpha shedding assay; details: read-out: EC50
# [6] = molecular target: T1, Putative P2Y purinoceptor 10; test: Agonist activity at human LPS2/P2Y10 transfected in HEK293-A cells co-transfected with AP-TGFalpha assessed as AP-TGFalpha release by TGFalpha shedding assay relative to LysopPS; details: filed as agonist
# McA-RH7777 [7] = test: Induction of actin stress fiber formation in rat McA-RH7777 cells expressing mouse LPS2 at 0.001 to 1 uM incubated for 30 mins by Alexa594-labelled phalloidin staining based fluorescence microscopic analysis; details: dose 0.001-1 µM
# T1 sequence (O00398 whole entry): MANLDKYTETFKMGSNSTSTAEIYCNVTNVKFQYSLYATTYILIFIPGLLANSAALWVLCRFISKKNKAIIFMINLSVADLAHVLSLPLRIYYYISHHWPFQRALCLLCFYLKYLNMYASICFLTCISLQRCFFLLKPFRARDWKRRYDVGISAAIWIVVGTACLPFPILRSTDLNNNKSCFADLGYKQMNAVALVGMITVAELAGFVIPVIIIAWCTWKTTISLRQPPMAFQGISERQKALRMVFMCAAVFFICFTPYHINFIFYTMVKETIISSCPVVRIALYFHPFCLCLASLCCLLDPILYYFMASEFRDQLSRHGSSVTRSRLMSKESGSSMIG
# Sequence of Putative P2Y purinoceptor 10 (Mus musculus, UniProt Q8BFU7) (Q8BFU7 whole entry): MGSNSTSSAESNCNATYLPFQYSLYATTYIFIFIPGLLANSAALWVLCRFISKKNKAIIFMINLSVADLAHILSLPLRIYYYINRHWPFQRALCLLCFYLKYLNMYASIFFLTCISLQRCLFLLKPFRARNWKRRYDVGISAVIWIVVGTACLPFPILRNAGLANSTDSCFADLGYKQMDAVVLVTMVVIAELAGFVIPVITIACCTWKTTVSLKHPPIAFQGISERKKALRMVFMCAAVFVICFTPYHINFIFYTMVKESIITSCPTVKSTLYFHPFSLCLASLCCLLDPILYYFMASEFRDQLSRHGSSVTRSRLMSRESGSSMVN
# Sequence of Putative P2Y purinoceptor 10 (Mus musculus) (Q8BFU7 whole entry): as above
SMILES,EC50 [1],Activity (McA-RH7777 [2]),Emax [3],Activity (McA-RH7777 [4]),EC50 [5],Emax [6],Activity (McA-RH7777 [7])
CCCCCCCC/C=C\CCCCCCCC(=O)OC[C@@H](O)COP(=O)(O)OC[C@H](N)C(=O)O,21 nM,Active,,,,,
N[C@@H](COP(=O)(O)OCCCOC(=O)CCc1ccccc1Oc1ccc(-c2cccc(-c3ccccc3)c2)cc1)C(=O)O,1 nM,,113%,Active,22 nM,125%,
N[C@@H](COP(=O)(O)OCCCOC(=O)CCc1ccccc1Oc1ccc(-c2ccc(C(=O)O)cc2)cc1)C(=O)O,170 nM,,100%,,,,inactive
N[C@@H](COP(=O)(O)OCCCOC(=O)CCc1ccccc1Oc1ccc(-c2cc(-c3ccccc3)cc(-c3ccccc3)c2)cc1)C(=O)O,1.9 nM,,83%,Active,6.1 nM,112%,
